Experiments:
[1] = system: TZM.bl cells
[2] = system: 2F5 Fab; format: binding
[3] = system: Envs from HIV-1 primary isolates of clade A, B, C and AG; format: cell-based
[4] = system: HIV-1 Env pseudoviruses; format: cell-based
[5] = system: SIVmac251.30 Env; format: cell-based, SIV
[6] = system: 293T cells
[7] = molecular target: HIV-1 92UG037.8 Env (Human immunodeficiency virus type 1, UniProt Q70200); format: cell-based

| SMILES | cytotoxicity in TZM.bl cells [1] | binding to 2F5 Fab by SPR (in words) [2] | inhibition of cell-cell fusion mediated by Envs of multiple primary HIV-1 isolates [3] | inhibition of HIV-1 infectivity versus MuLV negative control [4] | inhibition of cell-cell fusion mediated by SIV Env, high expression level [5] | inhibition of cell-cell fusion mediated by SIV Env, low expression level [5] | cytotoxicity by an assay measuring ATP concentration [6] | inhibition activity/potency in the HIV-1 Env cell-cell fusion assay (in words) [7] |
| --- | --- | --- | --- | --- | --- | --- | --- | --- |
| Cc1cc(N)c2ccccc2[n+]1CCCCCCCCCC[n+]1c(C)cc(N)c2ccccc21 [dequalinium, quinolinium,1,1’-(1,10-decanediyl)-bis(4-amino-2-methyldiiodide)] | more cytotoxicity than in the cell-cell fusion assay | no binding | specifically inhibited | much greater inhibition | resistant | inhibited | minimal level of cytotoxicity |  |
| Cc1cc(N)c2ccccc2n1 [4-aminoquinaldine] |  |  |  |  |  |  |  | no activity |
